Experiment [1] deals with CYTb-G131S (cytb G131S, parent Dd2). Nature of the experiment: Cross-resistance EC50 assay, CYTb-G131S. Format: cell-based, Plasmodium falciparum. The conditions noted are these: Plasmodium falciparum, SYBR green 72 hour assay, synchronized parasites, 384-well format. The text has this:
To evaluate potential overlapping activity against known antimalarial drug targets, we performed dose-response studies with each compound against our assembled set of drug-resistant lines and their corresponding parents, in an asexual blood stage proliferation assay (Table 1). Comparisons were made to the drug-sensitive strain 3D7 when a parent was unavailable (TM90C2A, W2 and Dd2). As laboratories conducted EC50 assays with different strains and protocols, all comparisons were made between assays from the same laboratory and under the same assay conditions. Compounds displaying >5-fold EC50 shifts relative to the parent or sensitive strain were flagged as having potentially non-novel targets. Average fold shifts per strain ranged from 0.82 to 2.34, with a median of 1.23 indicating there was not common resistance to any one resistant clone. No resistance patterns were observed when classifying the compounds based on chemical structure, but this was not surprising given the diversity of compounds chosen. On the other hand, given that these confirmed compounds were derived from larger unconfirmed hit lists to which some filtration criteria may have been applied (for example, elimination of obvious dihydrofolate reductase inhibitors[32]), some[10][11][12][13] pre-existing bias may exist in the set. […]
Alternatively, a SYBR Green-based proliferation approach was used for the 72-h assay, as previously described. Briefly, a culture of either synchronized or asynchronous parasitized RBCs (0.3% parasitemia and 4% haematocrit) in screening medium (identical to supplemented medium above except no serum was added) was exposed to serial drug dilutions. Plates were incubated at 37 °C and gassed with 93% N2, 4% CO2 and 3% O2 for 72 h. Following incubation, 10 × SYBR Green I (Invitrogen; supplied in 10,000 × concentration) in lysis buffer ([…], 5 mM EDTA, 0.16% Saponin wt per vol and 1.6% Triton X vol per vol) was added to the wells and the plates were incubated overnight at room temperature before plate reading. EC50 assays were repeated three times, taking the average EC50 value from each assay set, and removing any outliers using a single iteration of Grubbs' test, eliminating values with z-scores above the critical z-value (α=0.05). The raw EC50 values for synchronized parasites assayed in a 384-well format are listed in Supplementary Data 4. The raw EC50 values for asynchronous parasites assayed in a 96 or 1536-well format are listed in Supplementary Data 5.
EC50 values for each strain were compared with those of the corresponding parent strain to determine fold-shift changes and identify resistance. To minimize the cause variance between assays, all comparisons were conducted between strains assayed under identical conditions. A one-way ANOVA followed by a Dunnet's post-test was conducted in GraphPad Prism to identify significant changes between the parent and resistant strain.

For a further experiment, the system named is 3D7. Nature of the experiment: Cross-resistance EC50 assay, 3D7 parent / sensitive strain. Format: cell-based. The conditions noted are these: Plasmodium falciparum. The method in brief:
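P. falciparum asexual blood-stage proliferation, parent/sensitive strain of each resistant clone; 48-h assay with rings (0.5% parasitemia, 2.0% haematocrit) in RPMI-1640/5% AlbuMAX, ^3H-hypoxanthine added at 24 h, normalized to no-drug and 2 μM artesunate controls; alternatively 72-h SYBR Green assay (0.3% parasitemia, 4% haematocrit). EC50s from triplicate fits.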

The test system of a further experiment is P. falciparum strain 3D7. Nature of the experiment: Asexual blood stage 3H-hypoxanthine incorporation assay, 3D7. Format: cell-based, Plasmodium falciparum. Conditions: Plasmodium falciparum, 3D7, asexual stage, P. falciparum 3D7; read-out: 3D7 EC50. The procedure:
The 48-h assay was carried out in a 96-well format following standard methods using the ^3H-hypoxanthine incorporation assay. The raw EC50 values corresponding to this assay can be found in Supplementary Data 3. Briefly, this assay relies on the parasite incorporation of labelled hypoxanthine that is proportional to P. falciparum growth. A culture of parasitized RBCs (0.5% parasitemia with a percentage of ring stage higher than 70% of total parasitemia, 2.0% haematocrit) in RPMI-1640, […] and 5 μM hypoxanthine was exposed to drug serial dilutions. Plates were incubated for 24 h at 37 °C, 5% CO2, 5% O2 and 90% N2. After 24 h of incubation, ^3H-hypoxanthine was added and plates were incubated for an additional 24-h period. After that, parasites were harvested on a glass fibre filter using a TOMTEC Cell Harvester 96. Filters were dried and melt-on scintillator sheets were used to determine the incorporation of ^3H-hypoxanthine. Radioactivity was measured using a microbeta counter. Data were normalized using the incorporation of the positive (parasitized RBCs without drug) and negative (same culture with artesunate at 2 μM) controls. All assays were conducted in triplicate using three independently grown cultures, and EC50 values were determined using the XLfit add-in module for Excel (version 2.3.1) from Grafit (version 5.3.1.3), where parameter h is the assay hill slope, x is the compound concentration and y is the inhibition of growth effect. The XLfit equation is: […]

Setting [2] is: SYBR green 72 hour assay, asynchronized parasites, 96-well or 1536-well format, 3D7 parent, read-out: 3D7 (PARENT) EC50 (µM) Average EC50.
Setting [3] is: SYBR green 72 hour assay, synchronized parasites, 384-well format, strain 3D7 (parent), read-out: 3D7 (PARENT) Average EC50.
[4] abbreviates: hypoxanthine 48-hour assay, synchronized parasites, 96-well format, strain 3D7 (parent), read-out: 3D7 (PARENT) Average EC50.
Where [5] appears, read: hypoxanthine 48-hour assay, synchronized parasites, 96-well format, strain 3D7-C9-WT (parent of PfATP4 Mut3), read-out: 3D7-C9-WT (PARENT) Average EC50.

Where two headings read alike, the source gives them in different places.

The source of these data is publication PMC4912613, “A broad analysis of resistance development in the malaria parasite” (Nature Communications, 2016).

With `CC(C)c1cccc(C(NC(=O)C2Cc3ccccc3CN2C(=O)c2cccc(N3CCOCC3)c2)C2CCCC2)c1` (stereo not drawn) [MMV028038], the half-maximal effective concentration (EC50) (as a rule, the concentration that produces a half-maximal response) is 461 nM in experiment [1] (strain CYTb:G131S (Dd2 parent)); 1.09 µM with 3D7 (setting [2]); 0.822 µM in the experiment on 3D7 (setting [3]); 0.577 µM in the experiment with 3D7 (setting [4]); 0.833 µM in the experiment on 3D7 (setting [5]); 540 nM in the experiment with P. falciparum strain 3D7.

For `O=C(NCC(CCCN1CCC(c2c[nH]c3ccccc23)CC1)c1ccccc1)Nc1ccc(Cl)c(Cl)c1` (stereo not drawn) [MMV029272], the EC50 in experiment [1] (strain CYTb:G131S (Dd2 parent)) was found to be 920 nM; with 3D7 (setting [2]) it was 2.87 µM; with 3D7 (setting [3]) it was 0.17 µM; in the experiment with 3D7 (setting [4]), 0.139 µM; in the experiment with 3D7 (setting [5]), 0.115 µM; in the experiment on P. falciparum strain 3D7, 136 nM.

For `CC(C)(C)OC(=O)N1CCN(c2ccccc2NC(=O)c2cccc(C(F)(F)F)c2Oc2ccc(F)cc2)CC1` [MMV030666], the 50% effective concentration (EC50) is 389 nM in experiment [1] (strain CYTb:G131S (Dd2 parent)); 0.122 µM in the experiment with 3D7 (setting [2]); 0.627 µM in the experiment with 3D7 (setting [3]); 0.494 µM in the experiment on 3D7 (setting [4]); 0.333 µM in the experiment on 3D7 (setting [5]); 486 nM in the experiment on P. falciparum strain 3D7.

As to `CC(NCc1ccccc1)c1cc(Cl)ccc1O` (stereo not drawn) [MMV665789], the EC50 in experiment [1] (strain CYTb:G131S (Dd2 parent)) amounted to 922 nM; in the experiment with 3D7 (setting [2]), 0.17 µM; in the experiment on 3D7 (setting [3]), 1 µM; with 3D7 (setting [4]), 1.25 µM; with 3D7 (setting [5]) it was 1.25 µM; with P. falciparum strain 3D7, 1250 nM.

`FC(F)(F)c1cccc(Nc2nc3ccccc3nc2Nc2cccc(C(F)(F)F)c2)c1` [MMV665794]: the EC50 in experiment [1] (strain CYTb:G131S (Dd2 parent)) turned out to be 172 nM; in the experiment with 3D7 (setting [2]) it was 0.318 µM; in the experiment with 3D7 (setting [3]) it was 0.164 µM; in the experiment on 3D7 (setting [4]), 0.103 µM; with P. falciparum strain 3D7, 100 nM.

For the molecule `O=C(Nc1ccc(Cl)c(Cl)c1)Nc1ccc(Cl)c(Cl)c1` [MMV665852], the half-maximal effective concentration (EC50) in experiment [1] (strain CYTb:G131S (Dd2 parent)) was 1120 nM; in the experiment with 3D7 (setting [2]), 1.55 µM; in the experiment on 3D7 (setting [3]) it was 1.16 µM; in the experiment on 3D7 (setting [4]), 1.24 µM; with P. falciparum strain 3D7, 1170 nM.

For `OC(CNC1CCCCC1)Cn1c2ccc(I)cc2c2cc(I)ccc21` (stereo not drawn) [MMV665882], the EC50 amounted to 46 nM in experiment [1] (strain CYTb:G131S (Dd2 parent)); 0.023 µM with 3D7 (setting [2]); 0.035 µM in the experiment on 3D7 (setting [3]); 0.075 µM in the experiment with 3D7 (setting [4]); 0.158 µM in the experiment on 3D7 (setting [5]); 72.7 nM in the experiment on P. falciparum strain 3D7.

With `O=C(Nc1ccccc1O)c1ccc(Oc2cccc(C(=O)Nc3ccccc3O)c2)cc1` [MMV665888], the EC50 is 1010 nM in experiment [1] (strain CYTb:G131S (Dd2 parent)); 0.295 µM with 3D7 (setting [2]); 0.614 µM in the experiment on 3D7 (setting [3]); 1.16 µM in the experiment with 3D7 (setting [4]); 1210 nM in the experiment with P. falciparum strain 3D7.

For the molecule `COc1ccc(C(=O)C2CC2c2ccc(Cl)cc2)cc1` (stereo not drawn) [MMV665924], the EC50 turned out to be 1910 nM in experiment [1] (strain CYTb:G131S (Dd2 parent)); 2.46 µM in the experiment on 3D7 (setting [2]); 0.976 µM with 3D7 (setting [3]); 0.824 µM in the experiment on 3D7 (setting [4]); 0.487 µM with 3D7 (setting [5]); 820 nM with P. falciparum strain 3D7.

`CCC(C)NCC(O)(c1ccc(Cl)cc1)c1ccc(Cl)cc1` (stereo not drawn) [MMV665928]: the EC50 amounted to 669 nM in experiment [1] (strain CYTb:G131S (Dd2 parent)); 0.028 µM with 3D7 (setting [2]); 0.972 µM with 3D7 (setting [3]); 0.494 µM in the experiment with 3D7 (setting [4]); 1.16 µM in the experiment with 3D7 (setting [5]); 494 nM in the experiment with P. falciparum strain 3D7.

Consider `O=C(Nc1ccsc1C(=O)NC1CCCCC1)c1ccc(F)cc1` [MMV665939], for which the EC50 in experiment [1] (strain CYTb:G131S (Dd2 parent)) stood at 2090 nM; in the experiment on 3D7 (setting [2]), 1.22 µM; in the experiment on 3D7 (setting [3]) it was 0.726 µM; in the experiment with 3D7 (setting [4]), 1.04 µM; with 3D7 (setting [5]), 2.1 µM; with P. falciparum strain 3D7 it was 1040 nM.

Consider `Nc1ccc(-c2nc3cc(Cc4ccc5[nH]c(-c6ccc(N)cc6)nc5c4)ccc3[nH]2)cc1` [MMV665943], for which the EC50 in experiment [1] (strain CYTb:G131S (Dd2 parent)) is 410 nM; in the experiment on 3D7 (setting [2]), 0.034 µM; in the experiment on 3D7 (setting [3]), 0.369 µM; with 3D7 (setting [4]), 0.316 µM; with 3D7 (setting [5]) it was 0.198 µM; in the experiment with P. falciparum strain 3D7 it was 316 nM.

With `O=C(NC(c1ccccc1)c1ccc2cccnc2c1O)c1ccccc1` (stereo not drawn) [MMV666080], the concentration for a half-maximal effect (EC50) in experiment [1] (strain CYTb:G131S (Dd2 parent)) came out at 401 nM; in the experiment on 3D7 (setting [2]), 0.723 µM; in the experiment with 3D7 (setting [3]), 0.682 µM; in the experiment with 3D7 (setting [4]), 0.845 µM; in the experiment on 3D7 (setting [5]) it was 3.92 µM; with P. falciparum strain 3D7, 845 nM.

For `COc1cc(C(=O)ON=C(N)Cc2cccc3ccccc23)cc(OC)c1OC` [MMV666687], the EC50 came to 492 nM in experiment [1] (strain CYTb:G131S (Dd2 parent)); 1 µM with 3D7 (setting [2]); 0.89 µM with 3D7 (setting [3]); 0.351 µM with 3D7 (setting [4]); 0.294 µM with 3D7 (setting [5]); 348 nM with P. falciparum strain 3D7.

In the case of `c1cc(-c2cnc3ccc(-c4ccc(N5CCOCC5)cc4)nn23)ccn1` [MMV668311], the concentration for a half-maximal effect (EC50) was found to be 63 nM in experiment [1] (strain CYTb:G131S (Dd2 parent)); 0.014 µM with 3D7 (setting [2]); 0.033 µM in the experiment with 3D7 (setting [3]); 0.05 µM in the experiment on 3D7 (setting [4]); 0.018 µM in the experiment with 3D7 (setting [5]); 48 nM in the experiment with P. falciparum strain 3D7.

As for `c1cncc(-c2cc(N3CCC(CN4CCOCC4)CC3)nc(-c3ccncc3)n2)c1` [MMV668399], the EC50 in experiment [1] (strain CYTb:G131S (Dd2 parent)) worked out at 137 nM; with 3D7 (setting [2]) it was 0.322 µM; in the experiment with 3D7 (setting [3]), 0.089 µM; in the experiment with 3D7 (setting [4]) it was 0.081 µM; with 3D7 (setting [5]) it was 0.072 µM; in the experiment on P. falciparum strain 3D7, 83 nM.

Turning to `CN(C)CCCNCc1ccc(-c2ccc(Cl)c(Cl)c2)o1` [MMV673964], the EC50 amounted to 363 nM in experiment [1] (DD2, CYTb:G131S strain); 0.068 µM with 3D7 (setting [2]); 0.29 µM with 3D7 (SYBR green 72 hour assay, synchronized parasites, 384-well format, 3D7 parent, read-out: 3D7 (PARENT) Average EC50); 0.633 µM with 3D7 (setting [4]); 0.575 µM in the experiment with 3D7 (setting [5]); 607 nM in the experiment on P. falciparum strain 3D7.
